System: rat aorta
Test: inhibition of calcium-induced contraction (change in tension) of spirally cut strips of rat aorta in K+ 45 mM saline
Type: cell-based
Conditions: 0.75 h, 45 millimolar potassium, 2 millimolar calcium, 45 minutes, read-out: IC50 (molar concentration required to reduce the response by 50%)
Method: The ability of the compounds to inhibit the movement of calcium into the cell is shown by their effectiveness in reducing the response of isolated heart tissue to an increase in calcium ion concentration in vitro. The test is performed by mounting spirally cut strips of rat aorta with one end fixed and the other attached to a force transducer. The tissue is immersed in a bath of physiological saline solution containing potassium ions at a concentration of 45 millimolar and no calcium. Calcium chloride is added to the bath with a pipette to give a final calcium ion concentration of 2 millimolar. The change in tension caused by the resulting contraction of the tissue is noted. The bath is drained and replaced with fresh saline solution and, after 45 minutes, the test is repeated with the particular compound under test present in the saline solution. The concentration of compound required to reduce the response by 50% (IC50) is recorded.
The molar concentrations of the compounds required to reduce the response by 50% in the test specified on pages 16-17 are given below (1M=1 gm.Mole/liter).

SMILES	IC50
CCOC(=O)C1=C(COCCNc2n[s+]([O-])nc2OC)NC(C)=C(C(=O)OC)C1c1cccc(Cl)c1Cl (stereo not drawn) [Example 64, 3-{2-[(4-{2,3-Dichlorophenyl}-3-ethoxycarbonyl-5-methoxycarbonyl-6-methyl-1,4-dihydropyrid-2-yl)methoxy]ethylamino}-4-methoxy-1,2,5-thiadiazole-1-oxid]	10 nM
CCOC(=O)C1=C(COCCNc2n[s+]([O-])nc2OC)NC(C)=C(C(=O)OC)C1c1ccccc1Cl (stereo not drawn) [Example 65]	25.1 nM
CCOC(=O)C1=C(COCCNc2n[s+]([O-])nc2OC)NC(C)=C(C(=O)OC)C1c1cccc(C(F)(F)F)c1Cl (stereo not drawn) [Example 66]	2.24 nM
CCOC(=O)C1=C(COCCNc2n[s+]([O-])nc2N)NC(C)=C(C(=O)OC)C1c1cccc(Cl)c1Cl (stereo not drawn) [Example 67, 3-{2-[(4-{2,3-Dichlorophenyl}-3-ethoxycarbonyl-5-methoxycarbonyl-6-methyl-1,4-dihydropyrid-2-yl)methoxy]ethylamino}-4-amino-1,2,5-thiadiazole-1-oxide hemihydrate]	19.9 nM
CCOC(=O)C1=C(COCCNc2n[s+]([O-])nc2N)NC(C)=C(C(=O)OC)C1c1ccccc1Cl (stereo not drawn) [Example 68]	13.1 nM
CCOC(=O)C1=C(COCCNC2=NCCS2)NC(C)=C(C(=O)OC)C1c1ccccc1Cl (stereo not drawn) [Example 70, 4-(2-Chlorophenyl)-3-ethoxycarbonyl-5-methoxycarbonyl-6-methyl-2-[2-(2-thiazolin-2-ylamino)ethoxymethyl]-1,4-dihydropyridine]	9.33 nM
CCOC(=O)C1=C(COCCNc2nccs2)NC(C)=C(C(=O)OC)C1c1ccccc1Cl (stereo not drawn) [Example 71, 4-(2-Chlorophenyl)-3-ethoxycarbonyl-5-methoxycarbonyl-6-methyl-2-[2-(thiazol-2-ylamino)ethoxymethyl]-1,4-dihydropyridine]	10 nM
CCOC(=O)C1=C(COCCNc2nc(C)cs2)NC(C)=C(C(=O)OC)C1c1ccccc1Cl (stereo not drawn) [Example 72]	39.8 nM
CCOC(=O)C1=C(COCCNc2nc(C(=O)OCC)cs2)NC(C)=C(C(=O)OC)C1c1ccccc1Cl (stereo not drawn) [Example 73]	4.4 nM
CCOC(=O)C1=C(COCCNC2=NC(=O)CS2)NC(C)=C(C(=O)OC)C1c1ccccc1Cl (stereo not drawn) [Example 74]	20 nM
CCOC(=O)C1=C(COCCNC2=NC(=O)CS2)NC(C)=C(C(=O)OC)C1c1cccc(C(F)(F)F)c1Cl (stereo not drawn) [Example 75]	7.08 nM

Next, values leading:

IC50	SMILES
5.37 nM	CCOC(=O)C1=C(COCCNc2nc(C(=O)NC)cs2)NC(C)=C(C(=O)OC)C1c1ccccc1Cl (stereo not drawn) [Example 77, 4-(2-Chlorophenyl)-3-ethoxycarbonyl-5-methoxycarbonyl-6-methyl-2-[2-(4-[N-methylcarbamoyl]-thiazol-2-ylamino)ethoxymethyl]-1,4-dihydropyridine]
2.29 nM	CCOC(=O)C1=C(COCCNc2noc(=O)[nH]2)NC(C)=C(C(=O)OC)C1c1cccc(Cl)c1Cl (stereo not drawn) [Example 78, 2-[2-(4,5-Dihydro-5-oxo-1,2,4-oxadiazol-3-ylamino)ethoxymethyl]-4-(2,3-dichlorophenyl)-3-ethoxycarbonyl-5-methoxycarbonyl-6-methyl-1,4-dihydropyridinemonohydrate]
6.6 nM	CCOC(=O)C1=C(COCCNc2nc(NC(=O)NC)n(C)n2)NC(C)=C(C(=O)OC)C1c1ccccc1Cl (stereo not drawn) [Example 79, hydrate]
1.34 nM	CCOC(=O)C1=C(COCCNc2cc(N3CCOCC3)ncn2)NC(C)=C(C(=O)OC)C1c1cccc(Cl)c1Cl (stereo not drawn) [Example 80, 4-(2,3-Dichlorophenyl)-3-ethoxycarbonyl-5-methoxycarbonyl-6-methyl-[2-(6-morpholinopyrimidin-4-ylamino)ethoxymethyl]-1,4-dihydropyridine]
3.16 nM	CCOC(=O)C1=C(COCCNc2cc(N3CCN(C)CC3)ncn2)NC(C)=C(C(=O)OC)C1c1cccc(Cl)c1Cl (stereo not drawn) [Example 81]
4.07 nM	CCOC(=O)C1=C(COCCNc2cc(N3CCCCC3)ncn2)NC(C)=C(C(=O)OC)C1c1cccc(Cl)c1Cl (stereo not drawn) [Example 82]
3.16 nM	CCOC(=O)C1=C(COCCNc2cc(NC)ncn2)NC(C)=C(C(=O)OC)C1c1cccc(Cl)c1Cl (stereo not drawn) [Example 83]
5.01 nM	CCOC(=O)C1=C(COCCNc2nccnc2NC)NC(C)=C(C(=O)OC)C1c1cccc(Cl)c1Cl (stereo not drawn) [Example 84]
5.01 nM	CCOC(=O)C1=C(COCCNc2cc(N3CCCCC3)ncn2)NC(C)=C(C(=O)OC)C1c1ccccc1Cl (stereo not drawn) [Example 85]
1.58 nM	CCOC(=O)C1=C(COCCNc2cc(N3CCOCC3)ncn2)NC(C)=C(C(=O)OC)C1c1ccccc1Cl (stereo not drawn) [Example 86]
100 nM	CCOC(=O)C1=C(COCCNc2nccnc2N2CCOCC2)NC(C)=C(C(=O)OC)C1c1ccccc1Cl (stereo not drawn) [Example 87]
0.126 nM	CCOC(=O)C1=C(COCCNc2cc(N3CCOCC3)ncn2)NC(C)=C(C(=O)OC)C1c1cccc(C(F)(F)F)c1Cl (stereo not drawn) [Example 88, 4-(2-Chloro-3-trifluoromethylphenyl)-3-ethoxycarbonyl-5-methoxycarbonyl-6-methyl-[2-(6-morpholino-pyrimidin-4-ylamino)ethoxymethyl]-1,4-dihydropyridin]
0.501 nM	CCOC(=O)C1=C(COCCNc2cnccn2)NC(C)=C(C(=O)OC)C1c1cccc(Cl)c1Cl (stereo not drawn) [Example 89, 4-(2,3-Dichlorophenyl)-3-ethoxycarbonyl-5-methoxycarbonyl-6-methyl-2-[2-(pyrazin-2-ylamino)ethoxymethyl]-1,4-dihydropyridine]
10 nM	CCOC(=O)C1=C(COCCNc2n[nH]c(O)n2)NC(C)=C(C(=O)OC)C1c1cccc(Cl)c1Cl (stereo not drawn) [Example 90B, 4-(2,3-Dichlorophenyl)-3-ethoxycarbonyl-2-[2-(5-hydroxy-1H-1,2,4-triazol-3-ylamino)ethoxymethyl]-5-methoxycarbonyl-6-methyl-1,4-dihydropyridine hydrate]
1 nM	CCOC(=O)C1=C(COCCNc2ncc(O)c(C)n2)NC(C)=C(C(=O)OC)C1c1cccc(Cl)c1Cl (stereo not drawn) [Example 91A, 4-(2,3-dichlorophenyl)-3-ethoxycarbonyl-2-[2-(5-hydroxy-4-methylpyrimidin-2-ylamino)ethoxymethyl]-5-methoxycarbonyl-6-methyl-1,4-dihydropyridine]
2.5 nM	CCOC(=O)C1=C(COCCNc2nc(C(C)=O)c[nH]2)NC(C)=C(C(=O)OC)C1c1cccc(Cl)c1Cl (stereo not drawn) [Example 91B, 2-[2-(4-acetylimidazol-2-ylamino)ethoxymethyl]-4-(2,3-dichlorophenyl)-3-ethoxycarbonyl-5-methoxycarbonyl-6-methyl-1,4-dihydropyridine]
